Measurements: ChEMBL document CHEMBL1201862, “PubChem BioAssay data set” (2004)
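Where inhibition never reached the appropriate level, the endpoint shown equals the highest concentration tested. Otherwise, values were interpolated linearly from a five-concentration, 48-hour dose response in 96-well plates. Abbreviation: GI50, concentration required for 50% inhibition of growth.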 The source made the active and inactive calls. Cut-off read from the data, not from the text of the source: active = GI50 up to about 1.1 µM and inactive = higher.

Key:
Assay in all cases: NCI-60 cell line screen, 48 h
MDA-MB-435 = test system: MDA-MB-435
SF-295 = test system: SF-295
SN12C = test system: SN12C
NCI-H23 = test system: NCI-H23
OVCAR-3 = test system: OVCAR-3
OVCAR-4 = test system: OVCAR-4
UACC-62 = test system: UACC-62
BT-549 = test system: BT-549
EKVX = test system: EKVX
MOLT-4 = test system: MOLT-4
HT-29 = test system: HT-29
ACHN = test system: ACHN
MDA-MB-231 = test system: MDA-MB-231
NCI-H460 = test system: NCI-H460
HCT-116 = test system: HCT-116
NCI-H226 = test system: NCI-H226
SF-268 = test system: SF-268
DU-145 = test system: DU-145
T47D = test system: T47D
HCT-15 = test system: HCT-15
NCI/ADR-RES = test system: NCI/ADR-RES
U-251 = test system: U-251
786-0 = test system: 786-0
Malme-3M = test system: Malme-3M
UO-31 = test system: UO-31
OVCAR-5 = test system: OVCAR-5
NCI-H522 = test system: NCI-H522
OVCAR-8 = test system: OVCAR-8
CCRF-CEM = test system: CCRF-CEM
SF-539 = test system: SF-539
K562 = test system: K562
A549 = test system: A549
HOP-92 = test system: HOP-92
IGROV-1 = test system: IGROV-1
SR = test system: SR
KM12 = test system: KM12
SK-MEL-2 = test system: SK-MEL-2
TK-10 = test system: TK-10
HCC 2998 = test system: HCC 2998
Hs-578T = test system: Hs-578T
M14 = test system: M14
SNB-19 = test system: SNB-19
UACC-257 = test system: UACC-257
RXF 393 = test system: RXF 393
SK-OV-3 = test system: SK-OV-3
SNB-75 = test system: SNB-75
SK-MEL-5 = test system: SK-MEL-5
LOX IMVI = test system: LOX IMVI
HL-60 = test system: HL-60
A498 = test system: A498
PC-3 = test system: PC-3
SK-MEL-28 = test system: SK-MEL-28
MCF7 = test system: MCF7
RPMI-8226 = test system: RPMI-8226
SW-620 = test system: SW-620
COLO 205 = test system: COLO 205
HOP-62 = test system: HOP-62
CAKI-1 = test system: CAKI-1

Measured: GI50

CCOC(=O)c1cc(-c2ccc([N+](=O)[O-])cc2)c([N+](=O)[O-])[nH]1
active: MDA-MB-231 0.37 µM
inactive: MDA-MB-435 2.75 µM | SF-295 2.1 µM | SN12C > 10 µM | NCI-H23 2.84 µM | OVCAR-3 2.7 µM | OVCAR-4 4.23 µM | UACC-62 3.03 µM | BT-549 3.4 µM | EKVX 2.51 µM | MOLT-4 3.77 µM | HT-29 2.69 µM | ACHN 3.28 µM | NCI-H460 2.26 µM | HCT-116 4.85 µM | NCI-H226 1.46 µM | SF-268 4.53 µM | DU-145 2.96 µM | T47D 2.33 µM | NCI/ADR-RES 3.1 µM | U-251 3.46 µM | 786-0 3.52 µM | Malme-3M > 10 µM | UO-31 2.42 µM | OVCAR-5 5.47 µM | NCI-H522 3.33 µM | OVCAR-8 4.24 µM | CCRF-CEM 2.6 µM | SF-539 > 10 µM | K562 3.48 µM | A549 2.88 µM | HOP-92 1.22 µM | IGROV-1 5.26 µM | SR 1.76 µM | KM12 7.19 µM | SK-MEL-2 2.72 µM | TK-10 4.22 µM | HCC 2998 4.38 µM | Hs-578T 3.34 µM | M14 > 10 µM | SNB-19 2.91 µM | UACC-257 1.6 µM | RXF 393 2.18 µM | SK-OV-3 > 10 µM | SNB-75 > 10 µM
2.9 µM: HCT-15

CCC1OC2C(CC=C(C)C)=C3OC(C)(O)C(C)(CC)C(OC(C)=O)C3=C3OC(=O)C=C1C32 (configuration not stated)
37 µM: HCT-15
inactive: MDA-MB-435 21.3 µM | SF-295 17.8 µM | SN12C 20.4 µM | NCI-H23 27.7 µM | OVCAR-3 37.8 µM | OVCAR-4 32.4 µM | SK-MEL-5 20.4 µM | UACC-62 18.8 µM | BT-549 21.5 µM | EKVX 33.3 µM | MOLT-4 22.7 µM | HT-29 22.8 µM | ACHN 39.6 µM | MDA-MB-231 19.8 µM | NCI-H460 30.9 µM | HCT-116 25.7 µM | SF-268 31.4 µM | LOX IMVI 21.3 µM | DU-145 39.6 µM | T47D 37.8 µM | NCI/ADR-RES 29.6 µM | HL-60 75 µM | U-251 30.3 µM | 786-0 37.7 µM | Malme-3M 21.4 µM | A498 36.7 µM | UO-31 22.6 µM | OVCAR-5 22 µM | NCI-H522 16.6 µM | OVCAR-8 35 µM | CCRF-CEM 36 µM | SF-539 19.6 µM | K562 32.8 µM | A549 31.6 µM | HOP-92 59.4 µM | IGROV-1 26.4 µM | PC-3 38.8 µM | SK-MEL-28 24.7 µM | SR 31.8 µM | MCF7 30.1 µM | KM12 23.1 µM | RPMI-8226 22.1 µM | SK-MEL-2 19.9 µM | TK-10 34.4 µM | HCC 2998 24 µM | SW-620 53.7 µM | Hs-578T 39.7 µM | M14 30.5 µM | SNB-19 28.1 µM | UACC-257 22.2 µM | COLO 205 28.2 µM | HOP-62 23.6 µM | CAKI-1 28.2 µM | SK-OV-3 33.6 µM | SNB-75 23.6 µM
